Patent publication US20260317309A1, “N-HETEROCYLIC GPCR RECEPTOR AGONISTS, PHARMACEUTICAL COMPOSITIONS COMPRISING THE SAME, AND METHODS FOR THEIR USE” (Carmot Therapeutics, Inc., priority 2022, published 2026)

Target: T1, human GLP-1 receptor (Homo sapiens, UniProt P43220)
T1 construct: expressed in transfected cells
Assay: GLP-1R cAMP assay (cAMP accumulation in CHO cells stably overexpressing the human GLP-1 receptor, HitHunter kit)
Type: cell-based
Conditions: CHO cells stably overexpressing human GLP-1R, 30 min, 20-point dose response in triplicate
Summary of the method: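 CHO cells stably expressing the human receptor (10,000/well) in HBSS with 10 mM HEPES and 625 μM IBMX, given compound as a 20-point dose response in triplicate for 30 min. cAMP was read by luminescent enzyme-complementation detection after overnight incubation, and EC50 was fitted from dose-response curves.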

T1 sequence (P43220 24-463): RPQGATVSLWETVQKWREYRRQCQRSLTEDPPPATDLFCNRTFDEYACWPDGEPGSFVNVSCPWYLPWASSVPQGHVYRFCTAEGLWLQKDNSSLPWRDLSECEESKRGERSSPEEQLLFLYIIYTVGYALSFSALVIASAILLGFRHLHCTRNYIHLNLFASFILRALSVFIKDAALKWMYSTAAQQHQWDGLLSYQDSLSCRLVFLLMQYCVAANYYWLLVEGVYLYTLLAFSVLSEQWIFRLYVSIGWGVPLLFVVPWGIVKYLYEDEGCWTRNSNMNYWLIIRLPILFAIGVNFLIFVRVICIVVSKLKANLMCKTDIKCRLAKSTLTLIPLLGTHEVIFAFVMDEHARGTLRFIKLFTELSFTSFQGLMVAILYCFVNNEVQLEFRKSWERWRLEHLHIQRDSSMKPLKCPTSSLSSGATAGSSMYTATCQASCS

Row | EC50 | SMILES
1 | 0.1 to 1 nM | C[C@H]1C[C@@H](Oc2ccnc(COc3ncc(Cl)cc3F)c2)CCN1Cc1nc2ccc(C(=O)O)cc2n1C[C@@H]1CCO1 [Compound 615, 2-(((2S,4S)-4-((2-(((5-Chloro-3-fluoropyridin-2-yl)oxy)methyl)pyridin-4-yl)oxy)-2-methylpiperidin-1-yl)methyl)-1-(((S)-oxetan-2-yl)methyl)-1H-benzo[d]imidazole-6-carboxylic acid]
2 | 0.1 to 1 nM | C[C@H]1C[C@@H](Oc2ccnc(COc3ccc(Cl)cn3)c2)CCN1Cc1nc2c(F)cc(C(=O)O)cc2n1C[C@@H]1CCO1 [Compound 616, 2-(((2S,4S)-4-((2-(((5-Chloropyridin-2-yl)oxy)methyl)pyridin-4-yl)oxy)-2-methylpiperidin-1-yl)methyl)-4-fluoro-1-(((S)-oxetan-2-yl)methyl)-1H-benzo[d]imidazole-6-carboxylic acid]
3 | < 0.1 nM | C[C@H](Cn1c(CN2CC[C@H](Oc3ccnc(COc4ncc(F)cc4F)n3)C[C@@H]2C)nc2ccc(C(=O)O)cc21)OC(F)F [Compound 617, 1-((R)-2-(Difluoromethoxy)propyl)-2-(((2S,4S)-4-((2-(((3,5-difluoropyridin-2-yl)oxy)methyl)pyrimidin-4-yl)oxy)-2-methylpiperidin-1-yl)methyl)-1H-benzo[d]imidazole-6-carboxylic acid]
4 | 0.1 to 1 nM | C[C@H](Cn1c(CN2CC[C@H](Oc3ccnc(COc4ccc(F)cc4F)n3)C[C@@H]2C)nc2ccc(C(=O)O)cc21)OC1CC1 [Compound 618, 1-((R)-2-cyclopropoxypropyl)-2-(((2S,4S)-4-((2-((2,4-difluorophenoxy)methyl)pyrimidin-4-yl)oxy)-2-methylpiperidin-1-yl)methyl)-1H-benzo[d]imidazole-6-carboxylic acid]
5 | 1 to 10 nM | C[C@H]1C[C@@H](Oc2ccnc(COc3ncc(F)cc3F)c2)CCN1Cc1nc2c(F)cc(C(=O)O)cc2n1C[C@@H]1CCO1 [Compound 619, 2-(((2S,4S)-4-((2-(((3,5-Difluoropyridin-2-yl)oxy)methyl)pyridin-4-yl)oxy)-2-methylpiperidin-1-yl)methyl)-4-fluoro-1-(((S)-oxetan-2-yl)methyl)-1H-benzo[d]imidazole-6-carboxylic acid]
6 | 0.1 to 1 nM | C[C@H](Cn1c(CN2CC[C@H](Oc3ccnc(COc4ncc(F)cc4F)n3)C[C@@H]2C)nc2c(F)cc(C(=O)O)cc21)OC(F)F [Compound 620, 1-((R)-2-(difluoromethoxy)propyl)-2-(((2S,4S)-4-((2-(((3,5-difluoropyridin-2-yl)oxy)methyl)pyrimidin-4-yl)oxy)-2-methylpiperidin-1-yl)methyl)-4-fluoro-1H-benzo[d]imidazole-6-carboxylic acid]
7 | < 0.1 nM | C[C@H]1C[C@@H](Oc2ccnc(COc3ccc(F)cc3F)n2)CCN1Cc1nc2c(F)cc(C(=O)O)cc2n1C[C@@H]1CCCO1 [Compound 621, 2-(((2S,4S)-4-((2-((2,4-Difluorophenoxy)methyl)pyrimidin-4-yl)oxy)-2-methylpiperidin-1-yl)methyl)-4-fluoro-1-(((S)-tetrahydrofuran-2-yl)methyl)-1H-benzo[d]imidazole-6-carboxylic acid]
8 | 0.1 to 1 nM | C[C@H]1C[C@@H](Oc2ccnc(COc3ncc(F)cc3F)n2)CCN1Cc1nc2c(F)cc(C(=O)O)cc2n1C[C@@H]1CCCO1 [Compound 622, 2-(((2S,4S)-4-((2-(((3,5-Difluoropyridin-2-yl)oxy)methyl)pyrimidin-4-yl)oxy)-2-methylpiperidin-1-yl)methyl)-4-fluoro-1-(((S)-tetrahydrofuran-2-yl)methyl)-1H-benzo[d]imidazole-6-carboxylic acid]
9 | 1 to 10 nM | C[C@H]1C[C@@H](Oc2ccnc(COc3ccc(F)cc3F)n2)CCN1Cc1nc2ccc(CCC(=O)O)cc2n1C[C@@H]1CCO1 [Compound 623, 3-(2-(((2S,4S)-4-((2-((2,4-difluorophenoxy)methyl)pyrimidin-4-yl)oxy)-2-methylpiperidin-1-yl)methyl)-1-(((S)-oxetan-2-yl)methyl)-1H-benzo[d]imidazol-6-yl) propanoic acid]
10 | 1 to 10 nM | C[C@H]1C[C@@H](Oc2ccnc(CNc3ncc(F)cc3Cl)n2)CCN1Cc1nc2ccc(C(=O)O)cc2n1C[C@@H]1CCO1 [Compound 624, 2-(((2S,4S)-4-((2-(((3-Chloro-5-fluoropyridin-2-yl)amino)methyl)pyrimidin-4-yl)oxy)-2-methylpiperidin-1-yl)methyl)-1-(((S)-oxetan-2-yl)methyl)-1H-benzo[d]imidazole-6-carboxylic acid]
11 | 1 to 10 nM | C[C@H]1C[C@@H](Oc2ccnc(COc3ncc(C#N)cc3F)c2)CCN1Cc1nc2c(F)cc(C(=O)O)cc2n1C[C@@H]1CCO1 [Compound 625, 2-(((2S,4S)-4-((2-(((5-Cyano-3-fluoropyridin-2-yl)oxy)methyl)pyridin-4-yl)oxy)-2-methylpiperidin-1-yl)methyl)-4-fluoro-1-(((S)-oxetan-2-yl)methyl)-1H-benzo[d]imidazole-6-carboxylic acid]

The next lines start with the molecule.

Row | SMILES | EC50
12 | C[C@H]1C[C@@H](Oc2ccnc(COc3ccc(C#N)cn3)n2)CCN1Cc1nc2c(F)cc(C(=O)O)cc2n1C[C@@H]1CCO1 [Compound 604, 2-{[(2S,4S)-4-[(2-{[(5-cyanopyridin-2-yl)oxy]methyl}pyrimidin-4-yl)oxy]-2-methylpiperidin-1-yl]methyl}-4-fluoro-1-{[(2S)-oxetan-2-yl]methyl}-1H-1,3-benzodiazole-6-carboxylic acid] | 0.1 to 1 nM
13 | O=C(O)c1cc(F)c2nc(CN3CCC(Oc4ccnc(COc5ncc(Cl)cc5F)n4)CC3)n(C[C@@H]3CCO3)c2c1 [Compound 605, 2-({4-[(2-{[(5-Chloro-3-fluoropyridin-2-yl)oxy]methyl}pyrimidin-4-yl)oxy]piperidin-1-yl}methyl)-4-fluoro-1-{[(2S)-oxetan-2-yl]methyl}-1H-1,3-benzodiazole-6-carboxylic acid] | < 0.1 nM
14 | C[C@H]1C[C@@H](Oc2ccnc(COc3ncc(F)cc3F)n2)CCN1Cc1nc2c(F)cc(C(=O)O)cc2n1C[C@@H]1CCO1 [Compound 606, 2-(((2S,4S)-4-((2-(((3,5-difluoropyridin-2-yl)oxy)methyl)pyrimidin-4-yl)oxy)-2-methylpiperidin-1-yl)methyl)-4-fluoro-1-(((S)-oxetan-2-yl)methyl)-1H-benzo[d]imidazole-6-carboxylic acid] | < 0.1 nM
15 | C[C@H]1C[C@@H](Oc2ccnc(COc3ncc(C#N)cc3F)n2)CCN1Cc1nc2c(F)cc(C(=O)O)cc2n1C[C@@H]1CCO1 [Compound 607, 2-{[(2S,4S)-4-[(2-{[(5-Cyano-3-fluoropyridin-2-yl)oxy]methyl}pyrimidin-4-yl)oxy]-2-methylpiperidin-1-yl]methyl}-4-fluoro-1-[(oxetan-2-yl)methyl]-1H-1,3-benzodiazole-6-carboxylic acid] | < 0.1 nM
16 | CC[C@H]1C[C@@H](Oc2ccnc(COc3ncc(Cl)cc3F)n2)CCN1Cc1nc2ccc(C(=O)O)cc2n1C[C@@H]1CCO1 [Compound 608, 2-{[(2S,4S)-4-[(2-{[(5-Chloro-3-fluoropyridin-2-yl)oxy]methyl}pyrimidin-4-yl)oxy]-2-ethylpiperidin-1-yl]methyl}-1-[(oxetan-2-yl)methyl]-1H-1,3-benzodiazole-6-carboxylic acid] | 0.1 to 1 nM
17 | CC[C@@H]1C[C@H](Oc2ccnc(COc3ncc(Cl)cc3F)n2)CCN1Cc1nc2ccc(C(=O)O)cc2n1C[C@@H]1CCO1 [Compound 609, 2-{[(2R,4R)-4-[(2-{[(5-Chloro-3-fluoropyridin-2-yl)oxy]methyl}pyrimidin-4-yl)oxy]-2-ethylpiperidin-1-yl]methyl}-1-[(oxetan-2-yl)methyl]-1H-1,3-benzodiazole-6-carboxylic acid] | 10 to 100 nM
18 | C[C@H]1C[C@@H](Oc2ccnc(COc3ccc(F)cc3F)n2)CCN1Cc1nc2ccc(C(=O)O)cc2n1C[C@H]1CCS1(=O)=O [Compound 610, 2-(((2S,4S)-4-((2-((2,4-difluorophenoxy)methyl)pyrimidin-4-yl)oxy)-2-methylpiperidin-1-yl)methyl)-1-(((R)-1,1-dioxidothietan-2-yl)methyl)-1H-benzo[d]imidazole-6-carboxylic acid] | 0.1 to 1 nM
19 | C[C@H]1C[C@@H](Oc2ccnc(COc3ccc(F)cc3F)n2)CCN1Cc1nc2ccc(C(=O)O)cc2n1C[C@@H]1CCS1(=O)=O [Compound 611, 2-(((2S,4S)-4-((2-((2,4-difluorophenoxy)methyl)pyrimidin-4-yl)oxy)-2-methylpiperidin-1-yl)methyl)-1-(((S)-1,1-dioxidothietan-2-yl)methyl)-1H-benzo[d]imidazole-6-carboxylic acid] | 0.1 to 1 nM
20 | C[C@@H](Cn1c(CN2CC[C@H](Oc3ccnc(COc4ccc(F)cc4F)n3)C[C@@H]2C)nc2ccc(C(=O)O)cc21)OC1CC1 [Compound 612, 1-((S)-2-cyclopropoxypropyl)-2-(((2S,4S)-4-((2-((2,4-difluorophenoxy)methyl)pyrimidin-4-yl)oxy)-2-methylpiperidin-1-yl)methyl)-1H-benzo[d]imidazole-6-carboxylic acid] | 1 to 10 nM
21 | O=C(O)c1cc(F)c2nc(CN3CCC(Oc4ccnc(COc5ncc(Cl)cc5F)c4)CC3)n(C[C@@H]3CCO3)c2c1 [Compound 613, (S)-2-((4-((2-(((5-Chloro-3-fluoropyridin-2-yl)oxy)methyl)pyridin-4-yl)oxy)piperidin-1-yl)methyl)-4-fluoro-1-(oxetan-2-ylmethyl)-1H-benzo[d]imidazole-6-carboxylic acid] | 0.1 to 1 nM
22 | C[C@H]1C[C@@H](Oc2ccnc(NCc3ccc(F)cc3F)n2)CCN1Cc1nc2ccc(C(=O)O)cc2n1C[C@@H]1CCO1 [Compound 614, 2-(((2S,4S)-4-((2-((2,4-Difluorobenzyl)amino)pyrimidin-4-yl)oxy)-2-methylpiperidin-1-yl)methyl)-1-(((S)-oxetan-2-yl)methyl)-1H-benzo[d]imidazole-6-carboxylic acid] | 0.1 to 1 nM
